Test results from BindingDB's records for doi:10.1021/bi401077f (Weill Cornell Medical College, 2013).

The compounds below were run against T1, Dihydrolipoyl dehydrogenase (Mycobacterium tuberculosis (strain CDC 1551 / Oshkosh), UniProt P9WHH8) (assay: Enzyme Assays).
T1 sequence (P9WHH8 whole entry): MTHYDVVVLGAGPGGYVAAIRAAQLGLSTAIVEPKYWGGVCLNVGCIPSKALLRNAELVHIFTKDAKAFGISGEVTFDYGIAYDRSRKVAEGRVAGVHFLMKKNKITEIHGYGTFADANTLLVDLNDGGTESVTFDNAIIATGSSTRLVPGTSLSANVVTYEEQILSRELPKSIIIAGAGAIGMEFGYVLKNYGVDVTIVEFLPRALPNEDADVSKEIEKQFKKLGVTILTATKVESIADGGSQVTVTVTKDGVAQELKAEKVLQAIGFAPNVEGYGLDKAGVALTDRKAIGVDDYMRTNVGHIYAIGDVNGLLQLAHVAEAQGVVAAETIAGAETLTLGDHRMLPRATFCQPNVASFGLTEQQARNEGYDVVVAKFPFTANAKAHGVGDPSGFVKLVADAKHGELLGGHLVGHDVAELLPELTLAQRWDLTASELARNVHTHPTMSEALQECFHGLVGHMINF

SMILES | IC50 [µM] | Ki [µM]
NC(=O)C(=O)NCc1cccnc1 [4031-0653] | 6 | 
CC(C)(C)NC(=O)C(=O)NCc1cccnc1 [4031-1995] | 100 | 
O=C(Nc1ccc(Br)cc1)C1CCC(S(=O)(=O)c2cccnc2)CC1 (stereo not drawn) [C324-0095] | > 100 | 
CCN(Cc1ccccc1)C(=O)CN(C)S(=O)(=O)c1cc(Br)cnc1N [E114-0951] | 12.5 | 
CN1CCN(S(=O)(=O)c2cc(Br)cnc2N)CC1 [E138-2099] | > 100 | 
CCCCNS(=O)(=O)c1cc(Br)cnc1N [E138-2195] | > 100 | 
CN(Cc1ccccc1)C(=O)CN(C)S(=O)(=O)c1cc(Br)cnc1N [E144-0828] | 34 | 
CCCCN(C)C(=O)CCNS(=O)(=O)c1cc(Br)cnc1N [E199-0112] | > 100 | 
Nc1ncc(Br)cc1S(=O)(=O)NCCC(=O)Nc1cccc(Cl)c1 [K906-3123] | > 100 | 
Cc1cc(NC(=O)CN(C)S(=O)(=O)c2cc(Br)cnc2N)ccc1Br [K906-3584] | < 0.1 | 
CC1CCCCC1NC(=O)CN(C)S(=O)(=O)c1cccc2cccnc12 (stereo not drawn) [N-(2-methylcyclohexyl)-2-[methyl(quinolin-8-ylsulfonyl)amino]acetamide] | > 100 | 
CN(CC(=O)Nc1ccc(F)c(Cl)c1)S(=O)(=O)c1cc(Br)cnc1N [SL418] |  | 0.143

What follows are compounds tested against T2, Dihydrolipoyl dehydrogenase (Mycobacterium tuberculosis (strain ATCC 25618 / H37Rv), UniProt P9WHH9) (assay: Enzyme Assays).
T2 sequence (P9WHH9 whole entry): T1 sequence (P9WHH8 whole entry)

SMILES | Ki [µM]
CN(CC(=O)Nc1ccc(F)c(Cl)c1)S(=O)(=O)c1cc(Br)cnc1N [SL418] | 0.333
